In PMC10845951, “Characterization of a selective, iron-chelating antifungal compound that disrupts fungal metabolism and synergizes with fluconazole” (Microbiology Spectrum, 2024):

System: C. glabrata gene expression
Experiment: RNA sequencing (gene regulation)
Type: cell-based, Candida glabrata
Conditions: for Log2 Fold-Change: vs DMSO
Description: Cells from overnight precultures in YPD medium were reinoculated in fresh YNB −iron medium (see “Culture maintenance” for contents) without iron and grown until OD600 of 0.4. […] Cells were collected from three independent experiments, snap frozen, and stored at −80°C. Total RNA purification was performed as previously described using the RNeasy Mini Kit (74104, Qiagen), and gDNA removal was made using the RNase-Free DNase Set kit (79254, Qiagen). RNA quantification and quality control were done with a Tape Station 4150 (Agilent) ([59]).
Library preparation and sequencing were performed at GenomEast (IGBMC, Illkirch, France). One DMSO 0.05% sample was excluded from the analysis due to insufficient quality. The library was sequenced on Illumina Hiseq 4000 sequencer as single-read 50-base reads following Illumina’s instructions. Reads were pre-processed in order to remove adapter, polyA, and low-quality sequences (Phred quality score below 20). Reads shorter than 40 bases were discarded from further analysis. These pre-processing steps were performed using cutadapt version 1.10 ([60]). Image analysis and base calling were performed using RTA 2.7.7 and bcl2fastq2.17.1.14. Adapter dimer reads were removed using DimerRemover (https://sourceforge.net/projects/dimerremover/). The quality of the RNAseq reads was examined using FastQC 0.11.2 (http://www.bioinformatics.babraham.ac.uk/projects/fastqc/) and FastQScreen 0.5.1 (https://www.bioinformatics.babraham.ac.uk/projects/fastq_screen/). Reads were mapped onto the ASM254v2 assembly of Candida glabrata genome using STAR version 2.5.3a ([61]). Gene expression quantification was performed from uniquely aligned reads using htseq-count version 0.6.1p1 ([62]), with annotations from Ensembl fungi version 50 and union mode. Only non-ambiguously assigned reads have been retained for further analyses. Read counts were normalized across samples with the median-of-ratios method ([63]). Comparisons were implemented in the Bioconductor package DESeq2 version 1.16.1 using the test for differential expression ([64]). Genes with no P-value corresponded to genes with high Cook’s distance that were filtered out. P-values were adjusted for multiple testing using the Benjamini and Hochberg method ([65]). Genes with no adjusted P-value correspond to genes filtered out in the independent filtering step in order to remove reads from genes that have no or little chance of showing evidence of significant differential expression.

## c1ccc(-c2cccc(-c3ccccn3)n2)nc1 [2,2′:6′,2′′-terpyridine]
10 µM, 1 h
  genes significantly downregulated: 220 genes
  genes significantly upregulated: 224 genes
ALD5 CAGL0J03212g
  Log2 Fold-Change: 0.7544
AP5 CAGL0K08756g
  Log2 Fold-Change: 0.9964
APE1 CAGL0K08536g
  Log2 Fold-Change: 0.6939
C. glabrata and S. cerevisiae
  transcriptional response: strong iron starvation response
CAGL0A03674g
  Log2 Fold-Change: 0.5588
CAGL0B00484g
  Log2 Fold-Change: 0.7628
CAGL0B00792g
  Log2 Fold-Change: 1.214
CAGL0B00880g
  Log2 Fold-Change: 0.7009
CAGL0B01485g
  Log2 Fold-Change: 0.6219
CAGL0B02343g
  Log2 Fold-Change: 1.023
CAGL0H06963g
  Log2 Fold-Change: 0.7275
CAGL0H06985g
  Log2 Fold-Change: 0.7901
CAGL0H07205g
  Log2 Fold-Change: 0.5522
CAGL0H08393g
  Log2 Fold-Change: 1.535
CAGL0H09966g
  Log2 Fold-Change: 1.521
CAGL0I00264g
  Log2 Fold-Change: 0.9978
CAGL0I02354g
  Log2 Fold-Change: 0.6425
CAGL0I02376g
  Log2 Fold-Change: 0.6418
CAGL0I02398g
  Log2 Fold-Change: 0.5822
CAGL0I02508g
  Log2 Fold-Change: 0.5529
CAGL0I02684g
  Log2 Fold-Change: 0.5135
CAGL0I03344g
  Log2 Fold-Change: 0.7316
CAGL0I03608g
  Log2 Fold-Change: 0.7862
CAGL0I03630g
  Log2 Fold-Change: 0.6284
CAGL0I04290g
  Log2 Fold-Change: 0.6237
CAGL0I05060g
  Log2 Fold-Change: 0.5728
CAGL0I05654g
  Log2 Fold-Change: 0.7141
CAGL0I09350g
  Log2 Fold-Change: 0.5587
CAGL0I09702g
  Log2 Fold-Change: 0.5611
CAGL0I10670g
  Log2 Fold-Change: 0.9553
CAGL0J00451g
  Log2 Fold-Change: 2.136
CAGL0J00473g
  Log2 Fold-Change: 0.7426
CAGL0J01023g
  Log2 Fold-Change: 1.022
CAGL0J01045g
  Log2 Fold-Change: 0.9433
CAGL0J02376g
  Log2 Fold-Change: 0.7958
CAGL0J03718g
  Log2 Fold-Change: 0.5395
CAGL0J05412g
  Log2 Fold-Change: 0.5243
CAGL0J07568g
  Log2 Fold-Change: 0.7185
CAGL0J07980g
  Log2 Fold-Change: 0.7919
CAGL0J08250g
  Log2 Fold-Change: 0.5358
CAGL0J08910g
  Log2 Fold-Change: 0.5502
CAGL0J09196g
  Log2 Fold-Change: 0.506
CAGL0J09460g
  Log2 Fold-Change: 0.6815
CAGL0J10032g
  Log2 Fold-Change: 0.7428
CAGL0J10252g
  Log2 Fold-Change: 0.8692
CAGL0J10912g
  Log2 Fold-Change: 0.7791
CAGL0J11066g
  Log2 Fold-Change: 0.8417
CAGL0J11088g
  Log2 Fold-Change: 0.5227
CAGL0J11242g
  Log2 Fold-Change: 0.9997
CAGL0J11286g
  Log2 Fold-Change: 0.9034
CAGL0K02211g
  Log2 Fold-Change: 0.9809
CAGL0K02387g
  Log2 Fold-Change: 0.933
CAGL0K02431g
  Log2 Fold-Change: 0.8737
CAGL0K03861g
  Log2 Fold-Change: 0.5943
CAGL0K05049g
  Log2 Fold-Change: 0.5707
CAGL0K05555g
  Log2 Fold-Change: 0.5483
CAGL0K06215g
  Log2 Fold-Change: 1.181
CAGL0K07007g
  Log2 Fold-Change: 1.24
CAGL0K07898g
  Log2 Fold-Change: 0.62
CAGL0K08272g
  Log2 Fold-Change: 0.5171
CAGL0K08360g
  Log2 Fold-Change: 0.5636
CAGL0K09284g
  Log2 Fold-Change: 1.197
CAGL0K09372g
  Log2 Fold-Change: 0.5402
CAGL0K09614g
  Log2 Fold-Change: 0.8683
CAGL0K09922g
  Log2 Fold-Change: 0.6435
CAGL0L00583g
  Log2 Fold-Change: 0.7346
CAGL0L02739g
  Log2 Fold-Change: 0.6875
CAGL0L02871g
  Log2 Fold-Change: 0.8194
CAGL0L03047g
  Log2 Fold-Change: 0.9793
CAGL0L03696g
  Log2 Fold-Change: 0.5808
CAGL0L04092g
  Log2 Fold-Change: 0.5318
CAGL0L04114g
  Log2 Fold-Change: 0.5841
CAGL0L04950g
  Log2 Fold-Change: 0.896
CAGL0L05170g
  Log2 Fold-Change: 0.8533
CAGL0L05258g
  Log2 Fold-Change: 1.271
CAGL0L05500g
  Log2 Fold-Change: 0.7913
CAGL0L05566g
  Log2 Fold-Change: 0.7478
CAGL0L05786g
  Log2 Fold-Change: 1.136
CAGL0L06468g
  Log2 Fold-Change: 0.5199
CAGL0L06754g
  Log2 Fold-Change: 0.7195
CAGL0L07678g
  Log2 Fold-Change: 0.9514
CAGL0L07832g
  Log2 Fold-Change: 0.9435
CAGL0L08096g
  Log2 Fold-Change: 0.673
CAGL0L08206g
  Log2 Fold-Change: 0.6805
CAGL0L08756g
  Log2 Fold-Change: 0.7529
CAGL0L08976g
  Log2 Fold-Change: 0.7934
CAGL0L10846g
  Log2 Fold-Change: 0.7927
CDC21 CAGL0K05467g
  Log2 Fold-Change: 0.5322
FTR1 CAGL0I06743g
  Log2 Fold-Change: 1.014
GAT1 CAGL0K07634g
  Log2 Fold-Change: 0.7416
HBN1 CAGL0B00990g
  Log2 Fold-Change: 1.565
HMX1 CAGL0A03905g
  Log2 Fold-Change: 1.923
KNH1 CAGL0H07997g
  Log2 Fold-Change: 0.5109
NOP8 CAGL0B01397g
  Log2 Fold-Change: 0.7894
PDR16 CAGL0J07436g
  Log2 Fold-Change: 0.9143
SNQ2 CAGL0I04862g
  Log2 Fold-Change: 0.5824
SUT1 CAGL0I04246g
  Log2 Fold-Change: 0.7641
SUT2 CAGL0L09383g
  Log2 Fold-Change: 0.6785
TRR1 CAGL0I01166g
  Log2 Fold-Change: 1.667
